Experimental data: paper PMC8895377, “In Vivo Targeting Replication Protein A for Cancer Therapy” (Frontiers in Oncology, 2022)

Legend:
H460 cells [1] = assay: Caspase 3/7 apoptosis assay; type: cell-based, human; conditions: H460, 24 h
Protocol: Apoptosis induction was determined by activation of Caspases 3 and 7 using the CellEvent™ Caspase-3/7 Green Detection Reagent (Invitrogen). H460 cells were plated at 5 × 10^3 cells/well in black 96-well plates with clear bottoms (Costar) and incubated for 24 h prior to treatments. Cells were treated with the indicated concentration of RPAi or cisplatin for 24 h. The vehicle (DMSO) concentration was held constant at 1% for RPAi treatments. For caspase 3/7 detection, medium was removed and replaced with phosphate buffered saline (PBS) containing 5% fetal bovine serum (FBS) and 2 µM CellEvent™ Caspase-3/7 Green Detection Reagent. Cells were incubated at 37°C/5% CO2 for 1 h, and fluorescence intensity was measured in a BioTek Synergy H1 plate reader (excitation/emission 485/528). Images were captured with an Evos FL2 Auto microscope (Invitrogen) using a 10× objective.
Figure 3 The 329 induction of apoptotic cell death. (A) Analysis of caspase 3/7 activity in H460 cells following 24 h of treatment with 1% DMSO or the indicated concentrations of 329. Fluorescence images were captured as described in the Materials and Methods. (B) Quantification of caspase 3/7 activity. Fluorescence was measured in 96-well plates using a Biotek Synergy H1 plate reader following 24-h incubation with the indicated drugs and concentrations.

[2] = system: lung cancer xenograft models; conditions: cited from earlier work
[3] = cited from earlier work
[4] = biological target: T1, RPA–DNA interaction (purified full-length RPA) (Homo sapiens, UniProt P27694); assay: EMSA of RPA–DNA interaction inhibition; type: binding; conditions: 6.25, 12.5, 25, 50 µM RPAi
T1 construct: Purified full-length RPA (120 ng) was incubated with the indicated RPAi
Protocol: (§1) EMSAs were performed as previously described ([9]). Briefly, reactions were conducted in 20 mM HEPES (pH 7.8), 1 mM DTT, 0.001% NP-40, and 50 mM NaCl. RPAis were suspended in 100% dimethlysulfoxide (DMSO), and DMSO concentration in the final reaction mixture was constant at less than 5%. Purified full-length RPA (120 ng) was incubated with the indicated RPAi or vehicle in reaction buffer for 30 min before the addition of the [^32]P-labeled 34-base ssDNA probe. Reactions were incubated for 5 min at room temperature, and products were separated via 6% native polyacrylamide gel electrophoresis. The bound and unbound fractions were quantified by phosphor-imager analysis using ImageQuant software (Molecular Dynamics, CA), and data were fit by non-linear regression using GraphPad Prism.
(§2) Figure 2 Replication protein A inhibitor (RPAi) inhibitory activity. (A) Chemical structure of RPAi’s 329 and 2004. (B) EMSA analysis of RPA–DNA interaction inhibition by 329 and 2004. Lanes 3–6 in each panel contain 6.25, 12.5, 25, and 50 µM of the indicated RPAi, respectively. The * indicates the position of the Escherichia coli SSB–single-stranded DNA (ssDNA) complex that serves as an internal specificity control. (C) Cell viability of H460 NSCLC cells in response to 329 and 2004.

[5] = biological target: Escherichia coli single strand binding protein (SSB) (Escherichia coli, UniProt P0AGE0); assay: EMSA internal specificity control, SSB–ssDNA complex; conditions: internal specificity control in EMSA
Protocol: as §1, §2

H460 NSCLC cells = assay: CCK-8 viability assay; type: cell-based, human; conditions: H460, 48 h, compared to 551 predecessor
Protocol: Cell lines were obtained from ATCC and maintained as monolayer cultures in RPMI 1640 medium (H460) or Dulbecco’s Modified Eagle's Medium (DMEM) (A549) supplemented with 10% fetal bovine serum. H460 and A549 cells were plated at 2.5 × 10^3 cells/well and A2780 and GCT27 cells plated at 5 × 10^3 cells/well in a 96-well plate and incubated for 18–24 h prior to treatments. Cells were treated with the indicated concentration of RPAi for 48 h. The vehicle (DMSO) concentration was held constant at 1%. Cell metabolism/viability was assessed by a mitochondrial metabolism assay (CCK-8) as we have described previously ([10]). The generation of the water-soluble formazan product by cellular dehydrogenases is proportional to the number of living cells. Following incubation with CCK-8 reagent, absorbance was measured at 450 nm with a BioTek Synergy H1 plate reader. Values were compared to those of vehicle-treated controls to determine percent viability, and the results represent the average and SEM of triplicate determinations.

[6] = system: A549 adenocarcinoma and H460 large cell carcinoma; design: method as in doi:10.1101/2020.11.30.404640; conditions: both models, differing dosing regimens, DMSO/Tween; cited from earlier work
[7] = design: method as in PMID 32550990; conditions: cited from earlier work
H460 cells [8] = assay: Chou-Talalay combination studies with RPAi 329; type: cell-based, human; conditions: H460, combination with RPAi 329
Protocol: To assess synergy, the combination index (CI) was determined as described by Chou-Talalay as we have previously described ([8]). Briefly, H460 cells were treated with RPAi and the indicated agent alone and in combination. […] The data from both the single-agent treatments and the combination treatment were used to calculate the CI and plot this value as a function of the fraction of cells affected (Fa). A CI of >1 indicates antagonism between the two agents, while a CI <1 indicates synergy.
(A) Chou-Talalay analysis of combination with chemotherapeutics. […] (B) Chou-Talalay analysis of combination with DDR-targeted agents as described in panel (A).

H460 cells [9] = assay: DNA fiber analysis of replication fork dynamics; type: cell-based, human
Protocol: Analysis of DNA replication intermediates was performed as previously described with minor modifications ([11], [12]). H460 cells were seeded in 6-well plates at a density of 2 × 10^5 cells. […] After harvesting, the cells were resuspended in PBS at a concentration of 1,000,000 cells/ml, and 2 µl of the cell suspension was mixed with 8 µl of lysis buffer (200 mM Tris-HCl pH 7.5, 50 mM EDTA, 0.5% SDS) on a Superfrost Plus microscope slide (Fisher Scientific). After 6 min of incubation, the slides were tilted at a 45-degree angle to allow cell lysates to slowly run down the slide. After air-drying, the slides were fixed in methanol:acetic acid (3:1) and stored at 4°C. DNA fibers were denatured with 2.5N HCl for 1 h, washed with PBS, and blocked with 5% BSA in PBS-T (PBS + 0.1% Tween-20) for 1 h. […] Excess antibodies were removed by washing with PBS-T 3 times. After air-drying, the slides were mounted onto a coverslip with mounting medium. Fiber tracts were imaged with a Nikon epifluorescence microscope using a 40× oil immersion objective, and 100 fibers for each group were analyzed in ImageJ where the ratios of CldU : IdU were compared using pixel length. Data were analyzed by ANOVA with Bonferroni test for multiple comparisons.
(A) Schematic depiction of experimental design. DNA was pulse-labeled with IdU for 20 min. After IdU removal, replication forks were stalled by the addition of HU or left to replicate with vehicle treatment. HU was removed, and replication was labeled with CldU. Following CldU, cells were treated with the DDRi or vehicle. […] Data presented are combined from three individual experiments (100 fibers analyzed per experiment; 300 fibers total). Red bar indicates the median value of CldU/IdU.

Escherichia coli single strand binding protein (SSB), sequence (P0AGE0 2-178): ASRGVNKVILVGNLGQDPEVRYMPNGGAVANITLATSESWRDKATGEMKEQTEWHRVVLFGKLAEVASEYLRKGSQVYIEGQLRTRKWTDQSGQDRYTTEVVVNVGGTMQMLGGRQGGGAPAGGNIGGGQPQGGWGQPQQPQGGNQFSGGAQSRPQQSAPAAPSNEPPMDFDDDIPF
T1 sequence (P27694 whole entry): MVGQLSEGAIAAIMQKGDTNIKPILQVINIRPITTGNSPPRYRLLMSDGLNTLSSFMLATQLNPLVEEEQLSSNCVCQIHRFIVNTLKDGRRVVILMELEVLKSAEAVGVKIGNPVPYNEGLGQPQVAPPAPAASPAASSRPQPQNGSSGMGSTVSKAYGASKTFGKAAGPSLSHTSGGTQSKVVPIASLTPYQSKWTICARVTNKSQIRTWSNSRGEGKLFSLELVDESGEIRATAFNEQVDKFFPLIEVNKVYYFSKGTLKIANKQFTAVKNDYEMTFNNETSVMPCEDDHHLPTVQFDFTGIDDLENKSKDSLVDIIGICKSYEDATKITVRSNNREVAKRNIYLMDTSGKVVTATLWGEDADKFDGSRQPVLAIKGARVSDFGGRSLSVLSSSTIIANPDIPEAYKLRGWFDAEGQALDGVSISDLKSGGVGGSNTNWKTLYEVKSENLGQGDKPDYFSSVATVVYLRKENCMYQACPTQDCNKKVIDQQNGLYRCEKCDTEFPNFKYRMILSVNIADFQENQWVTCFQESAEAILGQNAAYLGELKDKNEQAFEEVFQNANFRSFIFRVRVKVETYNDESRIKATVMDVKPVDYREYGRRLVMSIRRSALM
T1 sequence (P15927 whole entry partner): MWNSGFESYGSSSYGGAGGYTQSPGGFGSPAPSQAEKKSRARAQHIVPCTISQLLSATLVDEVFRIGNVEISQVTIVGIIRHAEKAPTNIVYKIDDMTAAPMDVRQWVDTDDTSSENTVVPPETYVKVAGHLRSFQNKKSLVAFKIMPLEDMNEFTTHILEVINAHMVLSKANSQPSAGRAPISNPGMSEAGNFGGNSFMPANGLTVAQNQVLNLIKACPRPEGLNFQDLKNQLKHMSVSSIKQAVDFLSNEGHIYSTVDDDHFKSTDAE
T1 sequence (P35244 whole entry partner): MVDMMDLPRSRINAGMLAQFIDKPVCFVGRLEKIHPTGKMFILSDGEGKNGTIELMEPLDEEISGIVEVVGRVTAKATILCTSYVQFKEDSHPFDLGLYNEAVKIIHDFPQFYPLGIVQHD

## CCOc1ccc2cc(C3CC(c4ccc(I)cc4)=NN3C(=O)CCCC(=O)O)c(Cl)nc2c1 (centres unmarked) [compound 551]
H460 cells [1]
  activation of caspases 3 and 7: inability to detect caspase activity
[2]; NSCLC xenograft models, reduced doses of carboplatin and 551, versus each agent alone
  tumor growth delay, combination with carboplatin: greater than additive effect on tumor growth delay
[2]
  in vivo activity: modest in vivo activity
[3]
  caspase activation or annexin V/PI positivity: not accompanied by caspase activation or annexin V/PI positivity

## CCOc1ccc2cc(C3CC(c4ccc(Br)cc4)=NN3C(=O)CCCC(=O)NCCCN3CCOCC3)c(Cl)nc2c1 (centres unmarked) [compound 2004]
[4]
  RPA inhibitory activity (RPA–DNA interaction, EMSA): potent RPA inhibitory activity
[5]
  interaction of E. coli SSB with ssDNA: not impacted
H460 NSCLC cells
  single-agent cellular anticancer activity (CCK-8): potent single-agent activity
[6]
  single-agent anticancer activity in vivo: only modest single-agent anticancer activity
[7]
  solubility, cellular uptake, and physicochemical properties: excellent

## O=C1NC(=O)c2c1c(-c1ccccc1Cl)cc1[nH]c3ccc(O)cc3c21 [Wee1 inhibitor]
H460 cells [8]
  synergy with RPAi 329 (Chou-Talalay): antagonistic or additive

## Cn1ncnc1[C@H]1c2n[nH]c(=O)c3cc(F)cc(c23)N[C@@H]1c1ccc(F)cc1 [BMN637]
H460 cells [8]
  synergy with RPAi 329 (Chou-Talalay): modest synergy

## CNCc1ccc(-c2cc(-c3nc(-c4ccc(S(=O)(=O)C(C)C)cc4)cnc3N)on2)cc1 [VE-822]
H460 cells [9]; H460, HU 2.5 mM then 329 50 µM or VE-822 2 µM
  CldU/IdU signal after HU: significant decrease in CldU/IdU signal
H460 cells [9]; H460, without HU, 329 50 µM, VE-822 2 µM, 2 h
  CldU/IdU, inhibitor alone: minimal effects

## N=C1NC(=O)/C(=C/c2ccc(O)cc2)S1 [mirin]
H460 cells [9]; H460, HU then ATRi or RPAi
  reversal of the CldU/IdU decrease: reversible
